# Source: PubChem BioAssay (NCI)
#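 Exposure lasted 48 hours, with cells grown in 96-well plates and compounds tested at five concentrations. GI50 is the concentration that inhibits growth by half. The concentration for full growth arrest is given as TGI.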
# Experiments:
# Test in all cases: growth of human tumour cells (NCI), 48 h
# [1] = system: 786-0 renal
# [2] = system: A498 renal
# [3] = system: A549 NSCLC
# [4] = system: ACHN renal
# [5] = system: BT-549 breast
# [6] = system: CAKI-1 renal
# [7] = system: CCRF-CEM leukemia
# [8] = system: COLO 205 colon
# [9] = system: DU-145 prostate
# [10] = system: EKVX NSCLC
# [11] = system: HCT-116 colon
# [12] = system: HCT-15 colon
# [13] = system: HL-60(TB) leukemia
# [14] = system: HOP-62 NSCLC
# [15] = system: HOP-92 NSCLC
# [16] = system: HS 578T breast
# [17] = system: HT29 colon
# [18] = system: IGROV1 ovarian
# [19] = system: K-562 leukemia
# [20] = system: KM12 colon
# [21] = system: M14 melanoma
# [22] = system: MALME-3M melanoma
# [23] = system: MCF7 breast
# [24] = system: MDA-MB-231 breast
# [25] = system: MDA-MB-435
# [26] = system: MOLT-4 leukemia
# [27] = system: NCI-H226 lung
# [28] = system: NCI-H23 lung
# [29] = system: NCI-H460 lung
# [30] = system: NCI-H522 lung
# [31] = system: NCI/ADR-RES ovarian
# [32] = system: OVCAR-3 ovarian
# [33] = system: OVCAR-4 ovarian
# [34] = system: OVCAR-5 ovarian
# [35] = system: OVCAR-8 ovarian
# [36] = system: PC-3 prostate
# [37] = system: RPMI-8226 leukemia
# [38] = system: RXF 393 renal
# [39] = system: SF-268 CNS
# [40] = system: SF-295 CNS
# [41] = system: SF-539 CNS
# [42] = system: SK-MEL-2 melanoma
# [43] = system: SK-MEL-28 melanoma
# [44] = system: SK-MEL-5 melanoma
# [45] = system: SK-OV-3 ovarian
# [46] = system: SN12C renal
# [47] = system: SNB-19 CNS
# [48] = system: SNB-75 CNS
# [49] = system: SR leukemia
# [50] = system: SW-620 colon
# [51] = system: T-47D breast
# [52] = system: U251 CNS
# [53] = system: UACC-257 melanoma
# [54] = system: UACC-62 melanoma
# [55] = system: UO-31 renal
# [56] = system: HCC-2998 colon
# [57] = system: LOX IMVI melanoma
# [58] = system: TK-10 renal
structure (smiles),measurement,setting,value
Nc1nc(N)c(C2=CCNCC2)c(=O)[nH]1,TGI,[1],> 100 µM
same,TGI,[2],> 100 µM
same,TGI,[3],> 100 µM
same,TGI,[4],> 100 µM
same,TGI,[5],> 100 µM
same,TGI,[6],> 100 µM
same,TGI,[7],> 100 µM
same,TGI,[8],> 100 µM
same,TGI,[9],> 100 µM
same,TGI,[10],> 100 µM
same,TGI,[11],> 100 µM
same,TGI,[12],> 100 µM
same,TGI,[13],> 100 µM
same,TGI,[14],> 100 µM
same,TGI,[15],> 100 µM
same,TGI,[16],> 100 µM
same,TGI,[17],> 100 µM
same,TGI,[18],> 100 µM
same,TGI,[19],> 100 µM
same,TGI,[20],> 100 µM
same,TGI,[21],> 100 µM
same,TGI,[22],> 100 µM
same,TGI,[23],> 100 µM
same,TGI,[24],> 100 µM
same,TGI,[25],> 100 µM
same,TGI,[26],> 100 µM
same,TGI,[27],> 100 µM
same,TGI,[28],> 100 µM
same,TGI,[29],> 100 µM
same,TGI,[30],> 100 µM
same,TGI,[31],> 100 µM
same,TGI,[32],> 100 µM
same,TGI,[33],> 100 µM
same,TGI,[34],> 100 µM
same,TGI,[35],> 100 µM
same,TGI,[36],> 100 µM
same,TGI,[37],> 100 µM
same,TGI,[38],> 100 µM
same,TGI,[39],> 100 µM
same,TGI,[40],> 100 µM
same,TGI,[41],> 100 µM
same,TGI,[42],> 100 µM
same,TGI,[43],> 100 µM
same,TGI,[44],> 100 µM
same,TGI,[45],> 100 µM
same,TGI,[46],> 100 µM
same,TGI,[47],> 100 µM
same,TGI,[48],> 100 µM
same,TGI,[49],> 100 µM
same,TGI,[50],> 100 µM
same,TGI,[51],> 100 µM
same,TGI,[52],> 100 µM
same,TGI,[53],> 100 µM
same,TGI,[54],> 100 µM
same,TGI,[55],> 100 µM
CC(OC(C)(C)C)[C@H](NC(=O)OC(C)(C)C)C(=O)O (some centres undefined),TGI,[1],> 100 µM
same,TGI,[2],> 100 µM
same,TGI,[3],> 100 µM
same,TGI,[4],> 100 µM
same,TGI,[5],> 100 µM
same,TGI,[6],> 100 µM
same,TGI,[7],> 100 µM
same,TGI,[8],> 100 µM
same,TGI,[9],> 100 µM
same,TGI,[10],> 100 µM
same,TGI,[56],> 100 µM
same,TGI,[11],> 100 µM
same,TGI,[12],> 100 µM
same,TGI,[13],> 100 µM
same,TGI,[14],> 100 µM
same,TGI,[15],> 100 µM
same,TGI,[16],> 100 µM
same,TGI,[17],> 100 µM
same,TGI,[18],> 100 µM
same,TGI,[19],> 100 µM
same,TGI,[20],> 100 µM
same,TGI,[57],> 100 µM
same,TGI,[21],> 100 µM
same,TGI,[22],> 100 µM
same,TGI,[23],> 100 µM
same,TGI,[24],> 100 µM
same,TGI,[25],> 100 µM
same,TGI,[26],> 100 µM
same,TGI,[27],> 100 µM
same,TGI,[28],> 100 µM
same,TGI,[29],> 100 µM
same,TGI,[30],> 100 µM
same,TGI,[31],> 100 µM
same,TGI,[32],> 100 µM
same,TGI,[33],> 100 µM
same,TGI,[34],> 100 µM
same,TGI,[35],> 100 µM
same,TGI,[36],> 100 µM
same,TGI,[37],> 100 µM
same,TGI,[39],> 100 µM
same,TGI,[40],> 100 µM
same,TGI,[41],> 100 µM
same,TGI,[44],> 100 µM
same,TGI,[45],> 100 µM
same,TGI,[46],> 100 µM
same,TGI,[47],> 100 µM
same,TGI,[49],> 100 µM
same,TGI,[50],> 100 µM
same,TGI,[51],> 100 µM
same,TGI,[58],> 100 µM
same,TGI,[52],> 100 µM
same,TGI,[53],> 100 µM
same,TGI,[54],> 100 µM
same,TGI,[55],> 100 µM
O=C1C(=O)c2ccccc2C(O)=C1CC=C(Br)Br,GI50,[1],3.99 µM
same,TGI,[1],> 100 µM
same,GI50,[2],6.21 µM
same,TGI,[2],31.3 µM
same,GI50,[3],2.82 µM
same,TGI,[3],62.2 µM
same,GI50,[4],4.71 µM
same,TGI,[4],92.3 µM
same,GI50,[5],11.3 µM
same,TGI,[5],71.9 µM
same,GI50,[6],3.38 µM
same,TGI,[6],> 100 µM
same,GI50,[7],2.7 µM
same,TGI,[7],> 100 µM
same,GI50,[8],10.3 µM
same,TGI,[8],24.5 µM
same,GI50,[9],9.36 µM
same,TGI,[9],> 100 µM
same,GI50,[56],18.6 µM
same,TGI,[56],> 100 µM
same,GI50,[11],0.887 µM
same,TGI,[11],> 100 µM
same,GI50,[12],0.368 µM
same,TGI,[12],> 100 µM
same,GI50,[13],5.37 µM
same,TGI,[13],30.4 µM
same,GI50,[14],9.01 µM
same,TGI,[14],> 100 µM
same,GI50,[15],12.5 µM
same,TGI,[15],76.4 µM
same,GI50,[16],10.6 µM
same,TGI,[16],56 µM
same,GI50,[17],3.25 µM
same,TGI,[17],53.5 µM
same,GI50,[18],3.91 µM
same,TGI,[18],93.8 µM
same,GI50,[19],1.33 µM
same,TGI,[19],> 100 µM
same,GI50,[20],3.14 µM
same,TGI,[20],64.9 µM
same,GI50,[57],1.34 µM
same,TGI,[57],27.6 µM
same,GI50,[21],7.38 µM
same,TGI,[21],55.4 µM
same,GI50,[22],18.2 µM
same,TGI,[22],60.4 µM
same,GI50,[23],4.29 µM
same,TGI,[23],> 100 µM
same,GI50,[24],8.98 µM
same,TGI,[24],27 µM
same,GI50,[25],5.26 µM
same,TGI,[25],98 µM
same,GI50,[26],2.83 µM
same,TGI,[26],> 100 µM
same,GI50,[27],11.6 µM
same,TGI,[27],53.2 µM
same,GI50,[29],0.524 µM
same,TGI,[29],13.3 µM
same,GI50,[30],5.28 µM
same,TGI,[30],29.9 µM
same,GI50,[31],5.33 µM
same,TGI,[31],87.3 µM
same,GI50,[32],8.75 µM
same,TGI,[32],34.7 µM
same,GI50,[33],11.7 µM
same,TGI,[33],75.9 µM
same,GI50,[34],21.8 µM
same,TGI,[34],> 100 µM
same,GI50,[35],2.14 µM
same,TGI,[35],66.8 µM
same,GI50,[36],3.05 µM
same,TGI,[36],91.5 µM
same,GI50,[37],1.57 µM
same,TGI,[37],31.1 µM
same,GI50,[38],14.3 µM
same,TGI,[38],80.7 µM
same,GI50,[39],2.66 µM
same,TGI,[39],> 100 µM
same,GI50,[40],3.29 µM
same,TGI,[40],> 100 µM
same,GI50,[41],4.17 µM
same,TGI,[41],47.3 µM
same,GI50,[42],12.2 µM
same,TGI,[42],30.9 µM
same,GI50,[43],12.8 µM
same,TGI,[43],> 100 µM
same,GI50,[44],1.28 µM
same,TGI,[44],16.6 µM
same,GI50,[45],10.5 µM
same,TGI,[45],59.8 µM
same,GI50,[46],5.7 µM
same,TGI,[46],77.9 µM
same,GI50,[47],4.67 µM
same,TGI,[47],77.8 µM
same,GI50,[48],2.58 µM
same,TGI,[48],59.5 µM
same,GI50,[49],2.57 µM
same,TGI,[49],55.9 µM
same,GI50,[50],3.07 µM
same,TGI,[50],> 100 µM
same,GI50,[51],15.4 µM
same,TGI,[51],81.2 µM
same,GI50,[52],0.976 µM
same,TGI,[52],52.7 µM
same,GI50,[53],11 µM
same,TGI,[53],38.4 µM
same,GI50,[54],1.57 µM
same,TGI,[54],35.9 µM
same,GI50,[55],6.13 µM
same,TGI,[55],62.1 µM
